In assay [1] the target is Sodium-dependent noradrenaline transporter (Homo sapiens, UniProt P23975).
Description: Displacement of [3H]nisoxetine from human NET
The target of assay [2] is Sodium-dependent serotonin transporter (Homo sapiens, UniProt P31645).
The target in assay [3] is Sodium-dependent dopamine transporter (Homo sapiens, UniProt Q01959).
Sodium-dependent dopamine transporter, sequence (Q01959 whole entry): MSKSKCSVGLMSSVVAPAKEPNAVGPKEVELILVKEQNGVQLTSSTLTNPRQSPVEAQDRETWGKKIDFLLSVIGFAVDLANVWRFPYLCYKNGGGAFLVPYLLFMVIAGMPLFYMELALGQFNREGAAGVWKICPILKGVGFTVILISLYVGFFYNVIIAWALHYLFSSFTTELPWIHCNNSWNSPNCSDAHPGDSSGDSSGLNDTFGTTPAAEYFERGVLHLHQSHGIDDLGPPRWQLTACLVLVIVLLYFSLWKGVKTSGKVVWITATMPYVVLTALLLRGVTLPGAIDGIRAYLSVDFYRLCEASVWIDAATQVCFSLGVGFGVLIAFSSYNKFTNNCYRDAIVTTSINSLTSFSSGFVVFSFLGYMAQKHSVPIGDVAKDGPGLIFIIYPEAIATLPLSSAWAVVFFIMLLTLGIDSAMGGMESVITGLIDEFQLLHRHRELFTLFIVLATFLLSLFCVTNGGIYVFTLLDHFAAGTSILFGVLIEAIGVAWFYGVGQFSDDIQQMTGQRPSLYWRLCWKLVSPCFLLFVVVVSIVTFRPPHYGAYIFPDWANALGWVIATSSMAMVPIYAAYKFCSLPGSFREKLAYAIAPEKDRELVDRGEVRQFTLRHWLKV

Sodium-dependent serotonin transporter, sequence (P31645 whole entry): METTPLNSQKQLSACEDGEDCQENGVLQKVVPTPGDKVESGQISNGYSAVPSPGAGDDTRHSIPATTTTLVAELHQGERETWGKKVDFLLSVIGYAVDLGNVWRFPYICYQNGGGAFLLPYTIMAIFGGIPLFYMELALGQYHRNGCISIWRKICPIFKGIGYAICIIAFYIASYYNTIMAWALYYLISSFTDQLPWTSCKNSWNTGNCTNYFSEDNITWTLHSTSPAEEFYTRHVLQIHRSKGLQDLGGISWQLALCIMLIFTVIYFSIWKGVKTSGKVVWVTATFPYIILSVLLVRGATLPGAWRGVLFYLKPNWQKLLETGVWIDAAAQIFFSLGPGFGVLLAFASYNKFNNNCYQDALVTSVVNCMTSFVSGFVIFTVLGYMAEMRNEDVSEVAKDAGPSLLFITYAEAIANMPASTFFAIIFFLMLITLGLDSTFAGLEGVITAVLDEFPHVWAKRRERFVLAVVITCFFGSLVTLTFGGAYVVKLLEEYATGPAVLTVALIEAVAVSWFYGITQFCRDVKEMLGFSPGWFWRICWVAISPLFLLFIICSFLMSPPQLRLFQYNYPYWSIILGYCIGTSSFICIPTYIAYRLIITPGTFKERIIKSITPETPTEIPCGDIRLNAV
Sodium-dependent noradrenaline transporter, sequence (P23975 whole entry): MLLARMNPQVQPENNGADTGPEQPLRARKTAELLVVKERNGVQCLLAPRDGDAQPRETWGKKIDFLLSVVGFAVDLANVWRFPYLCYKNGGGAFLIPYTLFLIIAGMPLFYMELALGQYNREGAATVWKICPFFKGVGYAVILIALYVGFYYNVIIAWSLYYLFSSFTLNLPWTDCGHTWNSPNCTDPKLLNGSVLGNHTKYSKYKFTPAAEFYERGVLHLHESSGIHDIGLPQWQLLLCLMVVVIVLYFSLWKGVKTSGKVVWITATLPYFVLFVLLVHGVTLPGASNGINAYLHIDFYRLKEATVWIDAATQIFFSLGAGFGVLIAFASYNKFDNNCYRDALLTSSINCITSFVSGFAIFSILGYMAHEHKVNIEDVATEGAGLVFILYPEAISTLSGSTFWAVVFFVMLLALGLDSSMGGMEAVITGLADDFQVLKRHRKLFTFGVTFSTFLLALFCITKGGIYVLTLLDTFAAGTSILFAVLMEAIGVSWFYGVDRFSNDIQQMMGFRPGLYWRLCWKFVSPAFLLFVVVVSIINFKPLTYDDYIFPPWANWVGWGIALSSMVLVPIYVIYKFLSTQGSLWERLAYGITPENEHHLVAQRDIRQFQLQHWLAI

In the case of `COC(=O)[C@@H]1C2CCC(C[C@@H]1c1ccc(C)cc1)N2C/C=C/CF` (stereo partly drawn), the inhibition constant Ki – broadly, a dissociation constant, usually derived from enzyme kinetics or from competition with a known ligand – in assay [1] amounted to 265 nM; in assay [2], 147 nM; in assay [3] it was 2.7 nM.
In assay [3], `COC(=O)[C@@H]1C2CCC(C[C@@H]1c1ccc(F)cc1)N2C/C=C/CF` (stereo partly drawn) gave a Ki of 9.5 nM.
As for `COC(=O)[C@@H]1C2CCC(C[C@@H]1c1ccc(Br)cc1)N2C/C=C/CF` (stereo partly drawn), the results for the Ki in assay [1] and in assay [2] were 87 nM and 8.5 nM, respectively.
In the case of `COC(=O)[C@@H]1C2CCC(C[C@@H]1c1ccc(I)cc1)N2C/C=C/CF` (stereo partly drawn), the Ki in assay [2] amounted to 2.2 nM; in assay [3], 0.5 nM.

The record behind these values is ChEMBL document CHEMBL1212822, “Synthesis, fluorine-18 radiolabeling, and biological evaluation of N-((E)-4-fluorobut-2-en-1-yl)-2beta-carbomethoxy-3beta-(4'-halophenyl)nortropanes: candidate radioligands for in vivo imaging of the brain dopamine transporter with positron emission tomography” (J Med Chem, 2010).
